Data as given in patent publication US9168295B2, “Vaccine peptide combinations” (Circassia Limited, priority 2007, dated 2015).
Entries after “also recorded” stand apart in the source; their conditions may differ. Read-outs that look alike come from different tables or passages of the source. No end group written: not given here.

System: peripheral blood basophils (PBMC) from cat allergic subjects
Assay: Histamine release assay and histamine ELISA
Type: cell-based, human
Conditions: for frequency of histamine release, in words: comparison among individual peptides
Description: Histamine release from fresh peripheral whole blood from cat allergic subjects was evaluated. Peripheral blood basophils were used as a surrogate for tissue mast cells which were not practical to assay. Blood was incubated in vitro with 9 individual peptides from the sequence of the major cat allergen Fel d 1 (SEQ ID NOS: 1, 2, 3, 4, 5, 6, 7, 11 and 12). These peptides were selected as potential T cell epitopes following peptide-MHC binding assays as explained in Example 1. Additionally, responses to a preferred mixtures of a mixture of 7 peptides identified in Example 1 were analysed. The tested preferred mixture of 7 peptides consisted of the peptides of SEQ ID NOS: 1 to 7. Histamine release in response to whole cat dander allergen extract acted as a positive control.
Peripheral blood mononuclear cells (PBMC) were isolated from the heparinised blood sample obtained from the subject. PBMC's were isolated by Ficoll-Hypaque density gradient separation. Once isolated, the cells were used in the cell proliferation assay, histamine release and ELISA assay and the cytokine release assay.
Assays were performed on PBMC (which contain basophils). Each peptide and combinations of peptides was compared with whole allergen molecules in a histamine release assay. Histamine concentrations were measured by ELISA.
The assay required 3×10^6 PBMC's per subject. The assay was performed using the Immunotech Histamine Release Immunoassay kit according to the manufacturer's instructions. Following the histamine release assay, acylated samples were tested by histamine ELISA. The histamine ELISA used 50 μl of the 100 μl acylated sample generated by the histamine release assay. The remaining 50 μl of sample was retained, by freezing at −20° C. until the data analysis section of the ELISA has been completed. Once the results had been analysed and the ELISA performed in a satisfactory manner, the samples were discarded.
Peptides were assayed for their ability to induce histamine release over a 5 log10 range (10 μg/ml to 1 ng/ml). The concentration range assayed was selected based on theoretical in vivo doses of peptide that may be achieved during therapy. For example, a 10 μg dose of peptide entering a blood volume of 5 litres, would result in a blood concentration of 2 ng/ml (2×10^−6 mg/ml), at the lower end of the histamine release assay dose range. Whole cat dander extract (C.B.F. LETI) was used as a positive control for release over a slightly higher concentration range (100 μg to 10 ng/ml). Single measurements (i.e. not duplicate or triplicate) were performed for each dilution. One duplicate blood sample was assayed for spontaneous histamine release and the mean value of these samples was subtracted from all peptide/allergen results.
After completion of the histamine ELISA, individual histamine levels were determined by interpolation for the standard curve generated in the ELISA assay. Results from samples were adjusted to allow for any dilution of the samples.
Histamine release was considered positive if (a) the highest concentration of peptide alone induced release of 10% or more of the total release value or (b) if two consecutive values were 10% or more of the total release. […] Of these, 6/81 (7.4%) had not positive control release to whole cat allergen extract.

| Compound | number of individuals in whom histamine release was detected (of 81 subjects) | also measured |
| --- | --- | --- |
| KALPVVLENARILKNCV [MLA04, KALPVVLENARILKNCV] | 6 |  |
| TAMKKIQDCYVENGLI [MLA12, TAMKKIQDCYVENGLI] | 6 |  |
| KENALSVLDKIYTSPL [MLA07] |  | number of individuals in whom histamine release was detected: 6 |
| AVQNTVEDLKLNTLGR [MLA16, AVQNTVEDLKLNTLGR] | 11 | frequency of histamine release, in words: most commonly released histamine; also recorded: the most frequent basophil histamine release responses; also recorded: most frequently associated with histamine release; also recorded: caused most frequent release; also recorded: gave the highest histamine release |
| ISSSKDCMGEAVQNTV [MLA15, ISSSKDCMGEAVQNTV] | 7 | frequency of histamine release, in words: most commonly released histamine; also recorded: the most frequent basophil histamine release responses; also recorded: gave the highest histamine release; Comments on histamine release (individual subject): MLA15 JUST ABOVE THE 10% CUT OFF |
| SRVLDGLVMTTISSSK [MLA14, SRVLDGLVMTTISSSK] | 2 |  |
| RILKNCVDAKMTEEDKE [MLA05, RILKNCVDAKMTEEDKE] |  | number of individuals in whom histamine release was detected: 1 |
| CC(C)C[C@H](NC(=O)[C@@H](NC(=O)[C@@H](NC(=O)[C@@H]1CCCN1C(=O)[C@H](CC(C)C)NC(=O)[C@H](C)NC(=O)[C@H](CCCCN)NC(=O)[C@H](Cc1ccc(O)cc1)NC(=O)[C@H](CCC(N)=O)NC(=O)[C@H](C)NC(=O)[C@@H](NC(=O)[C@H](CCC(N)=O)NC(=O)[C@@H](N)CCC(=O)O)C(C)C)C(C)C)C(C)C)C(=O)N[C@@H](CCC(=O)O)C(=O)N[C@@H](CC(N)=O)C(=O)N[C@@H](C)C(=O)O [MLA03, EQVAQYKALPVVLENA] | 6 |  |
